These results are taken from patent US7544703B2, “Cyclic compound having 4-pyridylalkylthio group having substituted or unsubstituted amino group introduced therein” (Santen Pharmaceutical Co., Ltd., priority 2004, dated 2009).

The subject of assay [1] is HUVEC (normal human umbilical vein endothelial cells). The assay can be described thus: VEGF-induced HUVEC proliferation: cell proliferation inhibitory action test.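 Further: each well holds 100 µL cell suspension before compound addition.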 It is filed as cell-based. Conditions: 72 h, 5 μL of 20 μg/mL test compound solution per well, WST-8 absorbance at 450 nm three days after VEGF addition, read-out: Cell proliferation inhibition rate (%). On the procedure:
A cell proliferation inhibitory action test of the compounds of the present invention was performed using a VEGF-induced HUVEC proliferation evaluation system (HUVEC stands for normal human umbilical vein endothelial cells), which is one of the widely-used methods of evaluating in vitro angiogenesis inhibitory effects of drugs. As one of the widely-used methods of evaluating angiogenesis inhibitory effects of drugs, a cell proliferation inhibitory action test using a VEGF-induced HUVEC proliferation reaction evaluation system has been reported in Cancer Res., 59, 99-106 (1999). According to the method described in the above-mentioned document, a cell proliferation inhibitory action test of the compounds of the present invention was performed, the cell proliferation inhibition rate was calculated, and the angiogenesis inhibitory effect of each of the compounds of the present invention was evaluated using the obtained rate as an index. Each test compound was dissolved in dimethyl sulfoxide (hereinafter abbreviated as DMSO), and the obtained solution was diluted with a commercially available phosphoric acid buffer solution (hereinafter abbreviated as PBS), whereby a 20 μg/mL test compound solution was prepared. HUVEC was suspended in a 0.5% fetal bovine serum (hereinafter abbreviated as FBS)-containing F12K medium, whereby a 2×10^4 cells/mL HUVEC suspension was prepared. VEGF was dissolved in 0.1% bovine serum albumin-containing PBS, and the obtained solution was diluted with the 0.5% FBS-containing F12K medium, whereby a 400 ng/mL VEGF solution was prepared. • 1) The HUVEC suspension was inoculated in an amount of 100 μL into each well of a 96-well plate coated with type I collagen (2×10^3 cells per well). • 2) One day after the inoculation, the test compound solution was added in an amount of 5 μL per well. • 3) One hour after the addition of the test compound solution, the VEGF solution was added in an amount of 5 μL per well. • 4) Three days after the addition of the VEGF solution, WST-8 assay kit (Dojin Chemical Co., Ltd.) was added in an amount of 10 μL per well. • 5) After 3 hours, the above-mentioned plate was attached to an absorptiometer (Multilabel Counter ARVO), and an absorbance at 450 nm of each well suspension (hereinafter referred to as test compound suspension) was measured. • 6) A test was carried out in the same manner as in the above 1) to 5) except that 1.0% DMSO was used instead of the test compound solution. The result was used as a control. Incubation was carried out under conditions of 37° C., 5% carbon dioxide and […] in an incubator throughout the above-mentioned test steps. The cell proliferation inhibition rate (%), which was used as an index of an angiogenesis inhibitory effect, was calculated according to the following calculation equation. Cell proliferation inhibition rate (%)=100−{(Absorbance of test compound suspension−A)/(absorbance of control−A)}×100 (Calculation Equation) A: Absorbance of only cell suspension (cell+medium) (Test Results and Discussion)
(Formazan colour is commonly taken as a measure of viable cells.)

Assay [2] concerns B16 cells. As to the kind of experiment: Tumor growth inhibitory action test using cancer models in mice (B16 cells). Type of assay: in vivo. To be noted: C57BL/6N mouse, B16 cells intradermal; 100 mg/kg/day oral once a day, day 0 to day 10; average of 9 mice per group; read-out: Tumor tissue weight inhibition rate (%). The method, then: A tumor growth inhibitory action test of the compounds of the present invention was performed using a tumor growth model in mice, which is one of the widely-used methods of evaluating in vivo anticancer effects of drugs.
As one of the widely-used methods of evaluating anticancer effects of drugs, a tumor growth inhibitory action test using cancer models in mice has been reported in Cancer Res., 59, 5209-5218 (1999). According to the method described in the above-mentioned document, a tumor growth inhibitory action test of the compounds of the present invention was performed, the tumor tissue weight inhibition rate was calculated, and the anticancer effect of each of the compounds of the present invention was evaluated using the obtained rate as an index.
A 1% aqueous methyl cellulose solution was added to each test compound to suspend it with a sonicator, whereby a 10 mg/mL test compound suspension was prepared.
Physiological saline was added to B16 cells, whereby a 3.3×10^7 cells/mL B16 cell suspension was prepared.
• 1) The back of each mouse (female, 6 weeks of age, C57BL/6N mouse) was depilated using a depilatory under Nembutal anesthesia. • 2) Several days after the depilation, the B16 cell suspension (300 μL) was injected intradermally into the back of the mouse under Nembutal anesthesia. • 3) From the B16 cell injection day (i.e. on day 0) to day 10, the test compound suspension (100 mg/kg/day) was orally administered once a day consecutively. • 4) Ten days after the injection of the cells, the mouse was euthanized with CO2 gas. • 5) A tumor tissue was enucleated from the mouse, and the weight of the tumor tissue was measured with an electronic balance. • 6) A test was performed in the same manner as in 1) to 5) except that the 1% aqueous methyl cellulose solution was used instead of the test compound suspension, and the result was used as a control. (Calculation of Tumor Tissue Weight Inhibition Rate)
A tumor tissue weight inhibition rate (the average of 9 mice per group), which was used as an index of anticancer effect, was calculated according to the following calculation equation. Tumor tissue weight inhibition rate (%)=100−(Mx/Mo)×100 (Calculation Equation) Mo: Tumor tissue weight of control group Mx: Tumor tissue weight of test compound solution administration group (Test Results and Discussion)

Assay [3] concerns choroidal neovascularization models in rats. The assay can be described thus: Neovascularization incidence test using laser-induced choroidal neovascularization models in rats. It is filed as in vivo. To be noted: 168 h; Brown Norway rat, krypton laser photocoagulation; 30 mg/kg/day oral once a day for 7 days; fluorescein fundus photography on day 7; average of 3 to 4 rats and 6 to 8 eyes; read-out: Ratio of neovascularization incidence rate (% of Control). The method, then:
A neovascularization incidence test of the compounds of the present invention was performed using a choroidal neovascularization model in rats, which is one of the widely-used methods of evaluating in vivo choroidal neovascularization inhibitory effects of drugs.
As one of the widely-used methods of evaluating choroidal neovascularization inhibitory effects of drugs, a neovascularization incidence test using choroidal neovascularization models in rats was reported in Graefe's Arch. Cli. Exp. Ophthalmol., 235, 313-319 (1997). According to the method described in the above-mentioned document, a neovascularization incidence test of the compounds of the present invention was performed, the ratio of neovascularization incidence rate of each of the compounds of the present invention administration groups to a neovascularization incidence rate of vehicle administration group (control group) was calculated, and the choroidal neovascularization inhibitory effect of each of the compounds of the present invention was evaluated using the obtained ratio as an index.
A 1% aqueous methyl cellulose solution was added to each test compound to suspend it, whereby a 6 mg/10 mL test compound suspension was prepared.
• 1) A 7:1 mixed solution (1 mL/kg) of a 5% ketamine hydrochloride injection and a 2% xylazine hydrochloride injection was administered intramuscularly to rats (Brown Norway male rat, 8 weeks of age, weight: 200 to 250 g) to anesthetize them systemically. • 2) A tropicamide-phenylephrine hydrochloride ophthalmic solution (trade name: Mydrin-P) was instilled into eyes to cause mydriasis, and then photocoagulation was performed in a Bruch's membrane of each rat using a krypton laser photocoagulation apparatus.
The laser photocoagulation was performed at 8 spots per eye sparsely avoiding thick retinal vessels in a posterior section of ocular fundus and focusing on the deep layer of the retina. Photocoagulation conditions were adjusted to 100 μm of spot size, 100 mW of intensity and 0.1 sec. dulation. • 3) After the photocoagulation, the ocular fundus was photographed to confirm photocoagulation (laser irradiation) sites. (Method of Test and Method of Measurement) • 1) From the laser photocoagulation day (i.e. on day 0) to day 6, the test compound suspension (30 mg/kg/day) was administered orally once a day for 7 consecutive days. • 2) As the vehicle administration group (control group), a test was performed in the same manner as in 1) except that the 1% aqueous methyl cellulose solution was used instead of the test compound suspension, and the result was used as a control. (Method of Evaluation) • 1) On day 7 after the photocoagulation, 0.1 mL of a 10% aqueous fluorescein solution was injected into a tail vein of the rat, and fluorescein fundus photography was performed. • 2) Next, in the fluorescein fundus photography, a spot where fluorescence leak was not observed was judged as negative, and a spot where fluorescence leak was observed was judged as positive. Photocoagulation sites where a little fluorescence leak was observed were judged as positive when two such sites are present. • 3) The neovascularization incidence rate was calculated according to the calculation equation 1. The ratio of the neovascularization incidence rate of the test compound administration group to that of the vehicle administration group was calculated according to the calculation equation 2 using the neovascularization incidence rate of the respective administration groups. […]

For assay [4], the system named is adjuvant arthritis models in rats. As to the kind of experiment: Paw edema inhibitory action test using adjuvant arthritis models in rats. It is filed as in vivo. To be noted: 504 h; Lewis rat, adjuvant-untreated (secondary inflammation) paw, day 21; 10 mg/kg/day oral once a day, day 0 to day 20; average of 8 rats per group; read-out: Paw edema inhibition rate (%). The method, then: A paw edema inhibitory action test of the compounds of the present invention was performed using an adjuvant arthritis model in rats, which is one of the widely-used methods of evaluating in vivo antiarthritis effects of drugs.
As one of the widely-used methods of evaluating antiarthritic effects of drugs, a paw edema inhibitory action test using adjuvant arthritis models in rats is known. Accordingly, a paw edema inhibitory action test of the compounds of the present invention was performed, the paw edema inhibition rate was calculated, and the antiarthritic effect of each of the compounds of the present invention was evaluated using the obtained rate as an index.
A 1% aqueous methyl cellulose solution was added to each test compound to suspend it, whereby a 2 mg/mL test compound suspension was prepared.
Liquid paraffin was added to Mycobacterium butyricum to suspend it, whereby 6 mg/mL adjuvant was prepared.
• 1) The adjuvant (0.1 mL) was injected subcutaneously into a left hind paw sole of each rat (male, 9 weeks of age, Lewis rat) to induce arthritis. • 2) From the adjuvant injection day (i.e. on day 0) to day 20, the test compound suspension (10 mg/kg/day) was orally administered once a day consecutively. • 3) On the adjuvant injection day, day 1, day 4, day 7, day 11, day 14, day 18 and day 21, each paw volume of both hind paws was measured with a plethysmometer. • 4) A test was performed in the same manner as in 1) to 3) except that the 1% aqueous methyl cellulose solution was used instead of the test compound suspension, and the result was used as a control. (Method of Evaluation)
Each paw edema inhibition rate of paw edema in an adjuvant-untreated paw (secondary inflammation paw) in each test compound administration group to paw edema in a secondary inflammation paw in a control group was calculated, and the antiarthritic effect of each of the compounds of the present invention was evaluated using the obtained rate as an index.
The paw edema rate was calculated according to the following calculation equation 1, and then the paw edema inhibition rate (the average of 8 rats per group), which was used as an index of the antiarthritic effect, was calculated according to the calculation equation 2. Paw edema rate (%)=(Paw volume after adjuvant treatment/paw volume before adjuvant treatment)×100 (Calculation Equation 1) Paw edema inhibition rate (%)=100−{(Sx−100)/(So−100)}×100 (Calculation Equation 2) So: Paw edema rate of control group Sx: Paw edema rate of test compound suspension administration group (Test Results and Discussion)

Counter-ions that a name gives are not always drawn.

Consider `CC(=O)N1CCN(c2cc(CSc3ncccc3C(=O)Nc3cc(C)cc(C)c3)ccn2)CC1` [Compound 1-6, 2-[2-(4-Acetylpiperazin-1-yl)pyridin-4-ylmethylthio]-N-(3,5-dimethylphenyl)pyridine-3-carboxamide], for which the inhibition at 20 µg/mL (stock) in assay [1] amounted to 100%. Further, the inhibition in vivo at 100 mg/kg/day in assay [2] was 42%. The response vs control in vivo at 30 mg/kg/day in assay [3] was found to be 38%.
Take `CNc1cc(CSc2ncccc2C(=O)Nc2cc(C)cc(C)c2)ccn1` [Compound 3-6, N-(3,5-Dimethylphenyl)-2-(2-methylaminopyridin-4-ylmethylthio)pyridine-3-carboxamide monohydrochloride]: the inhibition at 20 µg/mL (stock) in assay [1] is 100%. In assay [2], the inhibition in vivo at 100 mg/kg/day stood at 71%. Besides, in assay [4], the inhibition in vivo at 10 mg/kg/day turned out to be 33%.
Turning to `CC(=O)Nc1cc(CSc2ncccc2C(=O)Nc2cccc(C)c2)ccn1` [Compound 4-20, 2-(2-Acetylaminopyridin-4-ylmethylthio)-N-(3-methylphenyl)pyridine-3-carboxamide], the inhibition in vivo at 100 mg/kg/day in assay [2] came to 84%. For the same molecule, the response vs control in vivo at 30 mg/kg/day in assay [3] was found to be 22%.
Regarding `CC(=O)Nc1cc(CSc2ccsc2C(=O)Nc2cc(C)cc(C)c2)ccn1` [Compound 4-56, 3-(2-Acetylaminopyridin-4-ylmethylthio)-N-(3,5-dimethylphenyl)thiophene-2-carboxamide], the inhibition at 20 µg/mL (stock) in assay [1] is 99%. The inhibition in vivo at 100 mg/kg/day in assay [2] is 42%.
